Assay results reported in patent US8937068B2, “Pyridopyrazine derivatives and their use” (Zentaris GmbH, priority 2005, dated 2015).

How the values were obtained:
[1] = target: p38alpha (Homo sapiens (Human), UniProt Q16539); test: Cell-free kinase assay (ALPHA technology), p38alpha; format: biochemical; conditions: 10 μM ATP
Method: (§1) The inhibitory effect of the compounds according to the invention was tested on various serine/threonine, tyrosine and lipid kinases in enzymatic assays. Recombinant human kinases such as, for example, Erk2, PI3Kalpha, -beta, -gamma, -delta, p38alpha, p38gamma, Jnk1, Jnk2 and others were used in this case, partly as full-length kinases, partly as shortened fragments, but at least consisting of the functional kinase domains. The commercial kinase proteins (Proqinase, Upstate) were used as recombinant fusion proteins with GST (glutathion-S-transferase) or His-Tag. Depending on the type of substrate, the various kinase reactions were quantified by means of suitable ALPHA™ beads (Perkin-Elmer).
(§2) The substance testing is described in detail hereinafter for the Erk assay.
(§3) a) MAPK-ALPHAs (e.g. Erk2): the test substance, 0.625 ng Erk2 (#14-173, Upstate), 10 μM ATP and 15 nM biotinylated MBP (myelin basic protein) substrate were incubated on a 384-well Optiplate (Perkin-Elmer) in a volume of 15 μl for 1 h in 25 mM Tris, 10 mM MgCl2, 0.1% Tween-20, 100 μM NaVO4, 2 mM DTT at pH 7.5. The kinase reaction was then stopped by adding 10 μl of the ALPHA bead mixes (10 μg/ml, #6760617/Perkin-Elmer) pre-incubated with anti-phospho MBP antibody (320 pM, #05-429/Upstate) in 25 mM Tris, 200 mM NaCl, 110 nM EDTA and 0.3% BSA and left to stand overnight. b) PI3K-ALPHAs (e.g. PI3Kalpha): the test substance, 1 ng PI3Kalpha (#14-602, Upstate), 100 μM ATP and 20 μM PIP2 substrate (#P4508, Echelon) were incubated on a 384-well Optiplate (Perkin-Elmer) for 1 h in 50 mM Hepes, 50 mM NaCl, 5 mM MgCl2, 0.05% Chaps, 5 mM DTT at pH 7.4. The kinase reaction was then stopped by adding ALPHA bead mixes (10 μg/ml, #6760603/Perkin-Elmer) pre-incubated with 1 nM GST:Grp1 fusion protein (Upstate) and 15 nM biotinylated PIP3 (#C-39B6/Echelon) in 50 mM Hepes, 50 mM NaCl, 50 mM EDTA and 0.1% BSA and left to stand overnight.
(§4) The fluorescence was detected the following morning in a Fusion™^aα-system (Perkin-Elmer).
(§5) The %-inhibition values per substance concentration were calculated by means of the following formula from the raw data determined in the Fusion™ ? :
(§6) Eight determinations were made for each control and two for the substance samples. The 0% control either contains no ATP or no substrate, the 100% control (fully active kinase) contains no test substance. The IC50 values were determined using GraphPadPrism.

[2] = tested on: Jnk1 + Jnk2; test: Cell-free kinase assay (ALPHA technology), Jnk1 + Jnk2; format: biochemical, human; conditions: 10 μM ATP
Method: as §1, §2, §3, §4, §5, §6

[3] = target: PI3Kalpha (Homo sapiens (Human), UniProt P42336); test: Cell-free kinase assay (ALPHA technology), PI3Kalpha; format: biochemical; conditions: 100 μM ATP
Method: as §1, §2, §3, §4, §5, §6

[4] = target: Erk2 (Homo sapiens, UniProt P28482); test: Cell-free kinase assay (ALPHA technology), Erk2; format: biochemical; conditions: 10 μM ATP
Method: The inhibitory effect of the compounds according to the invention was tested on various serine/threonine, tyrosine and lipid kinases in enzymatic assays. […] The commercial kinase proteins (Proqinase, Upstate) were used as recombinant fusion proteins with GST (glutathion-S-transferase) or His-Tag. Depending on the type of substrate, the various kinase reactions were quantified by means of suitable ALPHA™ beads (Perkin-Elmer). The substance testing is described in detail hereinafter for the Erk assay. […] a) MAPK-ALPHAs (e.g. […] The kinase reaction was then stopped by adding ALPHA bead mixes (10 μg/ml, #6760603/Perkin-Elmer) pre-incubated with 1 nM GST:Grp1 fusion protein (Upstate) and 15 nM biotinylated PIP3 (#C-39B6/Echelon) in 50 mM Hepes, 50 mM NaCl, 50 mM EDTA and 0.1% BSA and left to stand overnight. The fluorescence was detected the following morning in a Fusion™^aα-system (Perkin-Elmer). […] Eight determinations were made for each control and two for the substance samples. […] The IC50 values were determined using GraphPadPrism.

[5] = tested on: Hct116; test: XTT assay, anti-proliferative effect, Hct116; format: cell-based; conditions: 45 h incubation
Method: (§7) The principle of this test is based on the intracellular reduction of the tetrazolium dye XTT (sodium 3′-[1-(phenylaminocarbonyl)-3,4-tetrazolium]-bis(4-methoxy-6-nitro)benzene sulfonic acid, Sigma) to a formazan dye by mitochondrial dehydrogenases. The dye is only formed by metabolically active cells and its photometrically measurable intensity is a quantitative indicator for the presence of living cells. The reduction of dye formation by incubation of the cells with substances serves as a parameter for the anti-proliferative effect.
(§8) The tumour cell lines (ATCC) were injected into 96-well microtitre plates in a defined cell number (5000 cells/well for BxPC3 and Hct116; 10000 cells/well for MDA MB468) and then incubated overnight in an incubator at 37° C., 5% CO2 and 95% air humidity. The test substances were prepared as stock solutions (10 mM) in DMSO. […] The cell plates were then incubated for 45 h in an incubator at 37° C., 5% CO2 and 95% air humidity.
(§9) For the detection reaction the substrate XTT was mixed with PMS (N-Methyl dibenzopyrazine methylsulfate, Sigma) and added to the cells so that a final concentration of 325 μg XTT/ml and 2.5 μg PMS/ml was obtained. It was then incubated for 3 h at 37° C., 95% air humidity. The formazan salt formed by the cellular dehydrogenases could then be quantified by adsorption at 490 nm.
(§10) The % inhibition value was evaluated by means of the following formula from the values for the optical densities measured in each case at 490 nm:
(§11) Eight determinations were made for each control and two for the substance samples. The 0% control contains no cells, the 100% control (proliferation control) contains no test substance. The EC50 values were determined using GraphPadPrism.

[6] = tested on: MDA-MB468; test: XTT assay, anti-proliferative effect, MDA-MB468; format: cell-based; conditions: 45 h incubation
Method: as §7, §8, §9, §10, §11

Chain of PI3Kalpha (P42336 whole entry): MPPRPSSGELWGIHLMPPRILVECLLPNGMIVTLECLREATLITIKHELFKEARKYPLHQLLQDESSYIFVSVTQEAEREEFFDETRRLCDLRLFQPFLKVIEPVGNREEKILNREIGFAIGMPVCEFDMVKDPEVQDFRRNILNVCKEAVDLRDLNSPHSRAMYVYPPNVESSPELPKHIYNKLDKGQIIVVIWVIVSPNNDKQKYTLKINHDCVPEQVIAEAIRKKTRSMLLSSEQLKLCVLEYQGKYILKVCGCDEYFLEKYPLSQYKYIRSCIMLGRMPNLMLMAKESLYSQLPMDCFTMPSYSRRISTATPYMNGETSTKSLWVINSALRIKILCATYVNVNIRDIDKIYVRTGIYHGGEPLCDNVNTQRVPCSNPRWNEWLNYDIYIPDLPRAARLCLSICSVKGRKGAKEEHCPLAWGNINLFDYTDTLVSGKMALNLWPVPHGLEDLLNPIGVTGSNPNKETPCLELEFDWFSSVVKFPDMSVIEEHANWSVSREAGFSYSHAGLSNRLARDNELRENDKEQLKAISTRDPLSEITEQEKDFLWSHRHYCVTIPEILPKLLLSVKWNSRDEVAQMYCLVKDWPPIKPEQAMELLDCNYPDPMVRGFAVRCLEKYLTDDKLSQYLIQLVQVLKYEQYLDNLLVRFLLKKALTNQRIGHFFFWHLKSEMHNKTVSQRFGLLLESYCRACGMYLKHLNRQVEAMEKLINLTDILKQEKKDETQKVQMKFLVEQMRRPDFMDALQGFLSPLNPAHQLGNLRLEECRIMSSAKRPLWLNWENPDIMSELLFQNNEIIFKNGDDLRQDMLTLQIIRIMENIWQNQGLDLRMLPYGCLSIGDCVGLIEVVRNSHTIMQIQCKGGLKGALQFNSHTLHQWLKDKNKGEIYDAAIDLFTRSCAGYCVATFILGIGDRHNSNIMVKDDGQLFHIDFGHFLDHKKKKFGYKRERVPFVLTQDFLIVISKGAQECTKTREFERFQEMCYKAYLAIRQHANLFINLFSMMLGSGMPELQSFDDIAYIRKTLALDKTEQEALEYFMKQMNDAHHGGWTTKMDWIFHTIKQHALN
Chain of PI3Kalpha (P27986 whole entry partner): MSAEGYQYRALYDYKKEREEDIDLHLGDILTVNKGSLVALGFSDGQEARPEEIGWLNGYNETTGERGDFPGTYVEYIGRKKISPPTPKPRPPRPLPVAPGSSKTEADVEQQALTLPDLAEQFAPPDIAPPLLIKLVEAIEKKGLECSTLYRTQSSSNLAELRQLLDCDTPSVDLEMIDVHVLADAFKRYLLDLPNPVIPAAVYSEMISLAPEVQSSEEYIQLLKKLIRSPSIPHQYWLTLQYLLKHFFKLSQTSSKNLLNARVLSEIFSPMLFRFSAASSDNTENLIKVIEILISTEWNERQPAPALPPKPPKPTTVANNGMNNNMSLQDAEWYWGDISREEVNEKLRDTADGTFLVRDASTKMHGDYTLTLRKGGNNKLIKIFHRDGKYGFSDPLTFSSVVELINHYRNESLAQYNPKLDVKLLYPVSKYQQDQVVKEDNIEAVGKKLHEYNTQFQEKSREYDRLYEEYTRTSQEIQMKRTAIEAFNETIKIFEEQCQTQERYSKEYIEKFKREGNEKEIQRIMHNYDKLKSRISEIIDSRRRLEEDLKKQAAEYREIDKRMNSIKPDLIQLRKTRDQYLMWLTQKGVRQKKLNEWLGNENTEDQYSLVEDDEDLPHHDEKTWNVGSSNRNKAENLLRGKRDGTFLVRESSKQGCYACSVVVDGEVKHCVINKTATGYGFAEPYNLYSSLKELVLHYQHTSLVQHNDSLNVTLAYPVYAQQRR
Chain of p38alpha (Q16539 whole entry, the tested form may be a part): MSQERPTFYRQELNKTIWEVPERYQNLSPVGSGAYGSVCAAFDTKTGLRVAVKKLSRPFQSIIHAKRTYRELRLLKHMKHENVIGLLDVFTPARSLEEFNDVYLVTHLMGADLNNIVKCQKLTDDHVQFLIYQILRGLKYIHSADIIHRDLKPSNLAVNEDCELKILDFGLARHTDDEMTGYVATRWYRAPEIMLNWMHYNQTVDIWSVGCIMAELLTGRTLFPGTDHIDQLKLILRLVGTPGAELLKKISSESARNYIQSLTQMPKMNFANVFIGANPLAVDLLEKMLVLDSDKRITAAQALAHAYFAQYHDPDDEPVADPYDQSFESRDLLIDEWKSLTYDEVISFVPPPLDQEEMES
Chain of Erk2 (P28482 2-360 limits assumed): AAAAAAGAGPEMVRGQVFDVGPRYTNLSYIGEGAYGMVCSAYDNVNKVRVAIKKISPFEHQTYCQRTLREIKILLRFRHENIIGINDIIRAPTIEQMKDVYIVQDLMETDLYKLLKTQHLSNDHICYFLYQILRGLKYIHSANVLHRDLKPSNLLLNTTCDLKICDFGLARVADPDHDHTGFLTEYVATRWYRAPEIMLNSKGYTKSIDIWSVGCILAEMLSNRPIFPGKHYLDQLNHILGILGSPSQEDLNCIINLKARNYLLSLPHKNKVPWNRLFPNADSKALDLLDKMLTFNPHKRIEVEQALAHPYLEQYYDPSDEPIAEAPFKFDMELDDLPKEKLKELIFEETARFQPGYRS

## C=CCNC(=S)Nc1ccc2ncc(-c3ccccc3)nc2n1 [Compound 1, 1-Allyl-3-(3-phenyl-pyrido[2,3-b]pyrazin-6-yl)-thiourea]
other
  melting point: 239 to 240 °C (dec.)
[1]
  IC50: > 31.6 µM
[2]
  IC50: > 31.6 µM
[3]
  IC50: 0.9 µM

## C=CCNC(=O)Nc1ccc2ncc(-c3ccc(O)cc3)nc2n1 [Compound 25, 1-allyl-3-[3-(4-hydroxy-phenyl)-pyrido[2,3-b]pyrazin-6-yl]-urea]
other
  melting point: 240 °C (dec.)
[1]
  IC50: > 100 µM
[2]
  IC50: > 31.6 µM
[4]
  IC50: 0.076 µM
[3]
  IC50: 1.5 µM

## CCNC(=O)Nc1ccc2ncc(Nc3cc(C)cc(C)c3)nc2n1 [Compound 191, 1-[3-(3,5-Dimethyl-phenylamino)-pyrido[2,3-b]pyrazin-6-yl]-3-ethyl-urea]
[5]; Homo sapiens, HCT-116
  EC50: 5.5 µM
[6]; Homo sapiens, MDA-MB-468
  EC50: 8.5 µM

## O=C(Nc1ccc(Cl)c(C(F)(F)F)c1)Nc1ccc2ncc(-c3ccccc3)nc2n1 [Compound 16, 1-(4-chloro-3-trifluoromethyl-phenyl)-3-(3-phenyl-pyrido[2,3-b]pyrazin-6-yl)-urea]
other
  melting point: 250 °C

## S=C(Nc1ccc2ncc(-c3ccccc3)nc2n1)NC1CCCCC1 [Compound 18, 1-cyclohexyl-3-(3-phenyl-pyrido[2,3-b]pyrazin-6-yl)-thiourea]
other
  melting point: 230 to 232 °C

## CCNC(=O)Nc1ccc2ncc(-c3cc(Cl)c(O)c(OC)c3)nc2n1 [Compound 175]
[1]
  IC50: > 100 µM
[2]
  IC50: 2.5 µM
[5]
  EC50: 4.4 µM
[4]
  IC50: 0.191 µM
[6]
  EC50: > 50 µM
[3]
  IC50: 0.458 µM

## CNC(=S)Nc1ccc2ncc(-c3ccccc3)nc2n1 [Compound 12, 1-methyl-3-(3-phenyl-pyrido[2,3-b]pyrazin-6-yl)-thiourea]
other
  melting point: 253 to 254 °C

## C=CCNC(=S)Nc1ccc2ncc(-c3ccc4ccccc4c3)nc2n1 [Compound 5, 1-allyl-3-(3-naphth-2-yl-pyrido[2,3-b]pyrazin-6-yl)-thiourea]
other
  melting point: 242 to 243 °C (dec.)

## C/C=C/NC(=S)Nc1ccc2nc(-c3ccc(O)cc3)c(-c3ccc(O)cc3)nc2n1 [Compound 33, 1-[2,3-bis-(4-hydroxy-phenyl)-pyrido[2,3-b]pyrazin-6-yl]-3-((E)-propenyl)-thiourea]
other
  melting point: 240 °C (dec.)

## Fc1ccc(NC(=S)Nc2ccc3ncc(-c4ccccc4)nc3n2)cc1 [Compound 14, 1-(4-fluoro-phenyl)-3-(3-phenyl-pyrido[2,3-b]pyrazin-6-yl)-thiourea]
other
  melting point: 225 to 226 °C

## C=CCNC(=S)Nc1ccc2ncc(-c3ccc(O)cc3)nc2n1.Cl
other
  melting point: 160 to 161 °C (dec.)

## C=CCNC(=S)Nc1ccc2ncc(-c3cccc(O)c3)nc2n1 [Compound 27, 1-allyl-3-[3-(3-hydroxy-phenyl)-pyrido[2,3-b]pyrazin-6-yl]-thiourea]
other
  melting point: 205 °C (dec.)

## CCNC(=O)Nc1ccc2ncc(-c3ccc(O)c(OC)c3)nc2n1 [Compound 193]
[1]
  IC50: > 100 µM
[2]
  IC50: 1.5 µM
[5]
  EC50: 2.1 µM
[4]
  IC50: 0.212 µM
[6]
  EC50: 4.4 µM
[3]
  IC50: 2.2 µM

## COc1cc(-c2cnc3ccc(NC(=O)NCCCCN4CCOCC4)nc3n2)ccc1O [Compound 176, 1-[3-(4-Hydroxy-3-methoxy-phenyl)-pyrido[2,3-b]pyrazin-6-yl]-3-(4-morpholin-4-yl-butyl)-urea]
[5]; Homo sapiens, HCT-116
  EC50: 11.8 µM
[6]; Homo sapiens, MDA-MB-468
  EC50: 17 µM

## C=CCNC(=S)Nc1ccc2ncc(-c3ccc4c(c3)OCO4)nc2n1 [Compound 28, 1-allyl-3-(3-benzo[1,3]dioxol-5-yl-pyrido[2,3-b]pyrazin-6-yl)-thiourea]
other
  melting point: 218 to 220 °C (dec.)

## CCNC(=O)Nc1ccc2ncc(-c3ccc(OP(=O)(O)O)c(OC)c3)nc2n1 [Compound 169, Phosphoric acid-mono-{4-[6-(3-ethyl-ureido)-pyrido-[2,3-b]pyrazin-3-yl]-2-methoxy-phenyl}-ester]
[1]
  IC50: > 100 µM
[2]
  IC50: 9.5 µM
[5]; Homo sapiens, HCT-116
  EC50: 2.8 µM
[4]
  IC50: 2.7 µM
[6]; Homo sapiens, MDA-MB-468
  EC50: 5.7 µM
[3]
  IC50: 3.7 µM

## C=CCNC(=S)Nc1ccc2nc(-c3ccc(O)cc3)cnc2n1 [Compound 34, 1-allyl-3-[2-(4-hydroxy-phenyl)-pyrido[2,3-b]pyrazin-6-yl]-thiourea]
other
  melting point: 260 °C (dec.)

## S=C(NCc1ccccc1)Nc1ccc2ncc(-c3ccccc3)nc2n1 [Compound 13, 1-benzyl-3-(3-phenyl-pyrido[2,3-b]pyrazin-6-yl)-thiourea]
other
  melting point: 232 to 233 °C

## C=CCNC(=S)Nc1cnc2nc(-c3ccc([N+](=O)[O-])cc3)cnc2c1 [Compound 137, 1-Allyl-3-[3-(4-nitro-phenyl)-pyrido[2,3-b]pyrazin-7-yl]-thiourea]
other
  melting point: 250 °C (dec.)

## COc1ccc(-c2cnc3ccc(NC(=S)Nc4ccc([N+](=O)[O-])cc4)nc3n2)cc1 [Compound 9, 1-[3-(4-methoxy-phenyl)-pyrido[2,3-b]pyrazin-6-yl]-3-(4-nitro-phenyl)-thiourea]
other
  melting point: 250 to 251 °C (dec.)

## CCNC(=O)Nc1ccc2nc(C)c(C)nc2n1 [Compound 37, 1-(2,3-Dimethyl-pyrido[2,3-b]pyrazin-6-yl)-3-ethyl-urea]
other
  melting point: 246 to 248 °C

## C=CCNC(=S)Nc1ccc2ncc(-c3ccc(C(=O)OCC)cc3)nc2n1 [Compound 26, 4-[6-(3-allyl-thioureido)-pyrido[2,3-b]pyrazin-3-yl]-benzoic acid ethyl ester]
other
  melting point: 223 to 224 °C

## Cc1ccc(NC(=O)Nc2ccc3ncc(-c4ccccc4)nc3n2)cc1 [Compound 15, 1-(3-phenyl-pyrido[2,3-b]pyrazin-6-yl)-3-p-tolyl-urea]
other
  melting point: 298 to 299 °C
